Measurements taken from patent US20090130707A1, “Methods of reducing the inhibitory effect of a redox active metal ion on the enzymatic hydrolysis of cellulosic material” (priority 2007, published 2009).

Assays:
[1] = test system: Cellulolytic Enzyme Composition #1; test: mini-scale PCS hydrolysis by Cellulolytic Enzyme Composition #1; assay type: biochemical, Trichoderma reesei; details: 10 mM FeSO4; 43 g PCS and 0.25 g enzyme per liter, pH 5, 50° C.
Method: (§1) The effect of various salts (FeSO4, FeCl2, NaCl, Na2SO4, MnSO4, MnCl2) was determined in the hydrolysis of PCS by Cellulolytic Enzyme Composition #2. The PCS hydrolysis was performed in duplicate in capped 1.7 ml EPPENDORF® tubes (“mini-scale”) containing 1 ml suspensions of 43.4 g of PCS (dry weight) per liter, 10 mM salts in 50 mM sodium acetate pH 5. Cellulolytic Enzyme Composition #2 was added at 0.25 g per liter. Reactions without the addition of the salt served as controls. The capped tubes were incubated at 50° C. in an INNOVA® 4080 incubator shaker (New Brunswick Scientific Co., Inc., Edison, N.J., USA) at 150 rpm.
Aliquots of the suspensions, sampled over time, were filtered by centrifugation using a 0.45 μm MULTISCREEN® HV membrane (Millipore, Billerica, Mass., USA) at 2000 rpm for 15 minutes using a SORVALL® RT7 centrifuge (Thermo Fisher Scientific, Waltham, Mass., USA). When not used immediately, the filtered sugary aliquots were frozen at −20° C. Sugar concentrations of the samples diluted in 0.005 M H2SO4 were measured after elution from a 4.6×250 mm AMINEX® HPX-87H column (Bio-Rad, Hercules, Calif., USA) by 0.005 M H2SO4 at a flow rate of 0.4 ml/minute at 65° C. with quantitation by integration of glucose and cellobiose using refractive index detection (CHEMSTATION®, AGILENT® 1100 HPLC, Agilent Technologies, Santa Clara, Calif., USA) calibrated with standards of glucose and cellobiose. The resultant equivalents were used to calculate the percentage of cellulose conversion for each reaction.
Example 30 was repeated with both Cellulolytic Enzyme Composition #1 and Cellulolytic Enzyme Composition #2. Soluble reducing sugars were measured by HPLC as described in Example 30. Reactions without the addition of FeSO4 served as controls.
The hydrolysis was performed in a series of duplicate “mini-scale” hydrolysis reactions according to the procedure described in Example 30.

[2] = test system: Cellulolytic Enzyme Composition #1; test: mini-plate-scale AVICEL hydrolysis by Cellulolytic Enzyme Composition #1; assay type: biochemical, Trichoderma reesei
[3] = test system: Cellulolytic Enzyme Composition #1; test: mini-plate-scale PASC hydrolysis by Cellulolytic Enzyme Composition #1; assay type: biochemical, Trichoderma reesei
Method: Various (biologically common) divalent metal cations with variable ionic radii were tested in 2.8 ml Deep Well Microplates (VWR International, West Chester, Pa., USA) (“mini-plate-scale”) containing 1 ml suspensions of 25 g of AVICEL® per liter in 50 mM sodium acetate pH 5 at 50° C. Cellulolytic Enzyme Composition #1 was added at 0.25 g per liter for each hydrolysis. The mini-plates were sealed at 160° C. for 2 seconds using an ABGENE® ALPS 300™ sealer (ABgene, Rochester, N.Y., USA). The sealed mini-plates were incubated at 50° C. in an INNOVA® 4080 incubator shaker at 150 rpm. Soluble reducing sugars were measured by HPLC as described in Example 30.
In one series of “mini-scale” hydrolysis reactions performed according to the procedure described in Example 30, the effect of 1 mM to 10 mM FeSO4 was evaluated in the hydrolysis of AVICEL® by Cellulolytic Enzyme Composition #1. In a series of “mini-plate-scale” hydrolysis reactions performed according to the procedure described in Example 32, the effect of 1 mM to 10 mM FeSO4 was evaluated in the hydrolysis of PASC by Cellulolytic Enzyme Composition #1, except 2 g of PASC and 0.05 g Cellulolytic Enzyme Composition #1 per liter of 50 mM sodium acetate pH 5 were used.
The above study was extended to a range of concentration of Fe(II) and cellulose. In a series of “mini-plate-scale” hydrolysis reactions performed according to the procedure described in Example 32, except that 0.1 to 10 mM FeSO4, 0.6 to 4 g of PASC and 0.01 g of Cellulolytic Enzyme Composition #1 per liter of 50 mM sodium acetate pH 5 were used.

[4] = test system: Cellulolytic Enzyme Composition #1; test: mini-scale AVICEL hydrolysis by Cellulolytic Enzyme Composition #1; assay type: biochemical, Trichoderma reesei
Method: FIGS. 19A, 19B, 19C, and 19D show the effective inhibitory concentration range of Fe(II) on the hydrolysis of AVICEL® by Cellulolytic Enzyme Composition #1 (A and B) and on the hydrolysis of PASC by Cellulolytic Enzyme Composition #1 (C and D). The AVICEL® hydrolysis was conducted with […] of AVICEL® and 0.25 g of Cellulolytic Enzyme Composition #1 per liter of 50 mM sodium acetate pH 5 at 50° C. FeSO4 (mM): (∘) 0, (+) 1, (Δ) 3, (⋄) 5, (□) 10. Dixon plot linear regression line: 1/Rate=(0.035±0.003)[Fe(II)]+(0.043±0.015), r^2=0.978. Rate was estimated from the hydrolysis difference (%) at 24 and 6 hours. The PASC hydrolysis was conducted with 2 g of PASC and 50 mg of Cellulolytic Enzyme Composition #1 per liter of 50 mM sodium acetate pH 5 at 50° C. Dixon plot linear regression line: 1/Rate=(0.0042±0.0003)[Fe(II)]+(0.059±0.002), r^2=0.994. Rates were estimated from the hydrolysis difference (%) at 7 hours.
as §1
In one series of “mini-scale” hydrolysis reactions performed according to the procedure described in Example 30, the effect of 1 mM to 10 mM FeSO4 was evaluated in the hydrolysis of AVICEL® by Cellulolytic Enzyme Composition #1.

[5] = target: T1, Trichoderma reesei Cel5A endoglucanase II (Trichoderma reesei, UniProt P07982); test: PASC hydrolysis by Cel5A endoglucanase II; assay type: biochemical; details: 10 mM FeSO4; 2 g PASC and 40 mg enzyme per liter (FIG. 20D)
T1 construct: made in house; host or cells: Aspergillus oryzae JaL250 (transformant JaL250AlLo27)

[6] = target: T2, Aspergillus oryzae CEL3A beta-glucosidase (Aspergillus oryzae, UniProt Q2UUD6); test: Cellobiose hydrolysis by CEL3A beta-glucosidase; assay type: biochemical; details: 10 mM FeSO4; 2 g cellobiose and 1 mg enzyme per liter (FIG. 21)
T2 construct: made in house
Method: The Fe(II) inhibition of Aspergillus oryzae CEL3A beta-glucosidase was measured similarly, except cellobiose replaced PASC. The initial rate vs Fe(II) concentration plots appeared as “mixed” type, whose complexity prevented extraction of Kis.

T1 sequence (P07982 22-418): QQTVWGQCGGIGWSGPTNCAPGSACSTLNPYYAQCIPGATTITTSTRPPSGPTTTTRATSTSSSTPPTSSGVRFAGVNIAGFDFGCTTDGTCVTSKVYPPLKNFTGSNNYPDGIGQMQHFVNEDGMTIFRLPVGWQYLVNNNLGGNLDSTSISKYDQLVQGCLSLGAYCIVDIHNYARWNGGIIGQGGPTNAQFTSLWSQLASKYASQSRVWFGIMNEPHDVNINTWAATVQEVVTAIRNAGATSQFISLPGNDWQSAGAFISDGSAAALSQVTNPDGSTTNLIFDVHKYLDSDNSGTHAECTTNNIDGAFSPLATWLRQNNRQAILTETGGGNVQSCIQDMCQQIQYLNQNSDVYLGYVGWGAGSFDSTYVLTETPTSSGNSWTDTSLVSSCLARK
T2 sequence (Q2UUD6 20-861): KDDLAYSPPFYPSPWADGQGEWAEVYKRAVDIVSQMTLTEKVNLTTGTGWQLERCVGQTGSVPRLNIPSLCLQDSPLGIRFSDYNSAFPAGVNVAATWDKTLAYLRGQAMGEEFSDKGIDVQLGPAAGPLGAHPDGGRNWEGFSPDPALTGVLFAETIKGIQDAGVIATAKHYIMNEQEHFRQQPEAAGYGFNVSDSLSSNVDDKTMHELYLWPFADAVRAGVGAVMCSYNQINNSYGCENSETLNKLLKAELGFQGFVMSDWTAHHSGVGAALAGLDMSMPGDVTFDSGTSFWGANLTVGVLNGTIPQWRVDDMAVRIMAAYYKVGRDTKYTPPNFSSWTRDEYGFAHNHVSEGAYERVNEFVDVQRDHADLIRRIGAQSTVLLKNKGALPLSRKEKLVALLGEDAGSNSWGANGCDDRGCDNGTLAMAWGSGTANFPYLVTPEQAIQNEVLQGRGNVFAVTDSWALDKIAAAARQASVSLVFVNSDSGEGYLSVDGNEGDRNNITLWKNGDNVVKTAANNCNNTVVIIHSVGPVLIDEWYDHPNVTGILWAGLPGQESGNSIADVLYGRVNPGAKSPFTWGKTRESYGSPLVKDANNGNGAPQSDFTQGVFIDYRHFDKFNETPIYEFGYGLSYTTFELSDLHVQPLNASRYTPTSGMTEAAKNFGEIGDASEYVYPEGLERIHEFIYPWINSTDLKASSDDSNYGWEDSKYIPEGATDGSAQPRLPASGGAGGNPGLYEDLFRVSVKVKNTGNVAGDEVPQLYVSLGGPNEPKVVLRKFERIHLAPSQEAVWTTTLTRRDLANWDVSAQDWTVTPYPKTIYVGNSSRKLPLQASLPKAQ

Substance: Ferrous sulfate [FeSO4]
- Effect on PCS hydrolysis [1]: significantly inhibited
- Effect on hydrolysis over concentration range ([2]; 0.1 to 10 mM): concentration-dependent inhibition
- Type of inhibition (double-reciprocal plots) ([2]; 0.5 to 4 mM FeSO4, 0.6 to 4 g AVICEL per liter): mix-type inhibition
- Concentration dependence of inhibition ([3]; 1 mM to 10 mM FeSO4, PASC (FIG. 19C)): increasingly inhibitory
- Type of inhibition (double-reciprocal plots) ([3]; 0.1 to 10 mM FeSO4, 0.6 to 4 g PASC, 0.01 g enzyme per liter): mix-type inhibition
- Ki ([3]; on PASC, 2 g PASC and 0.05 g enzyme per liter, read-out: Ki (x-intercept of Dixon plot)): ~14 mM
- Concentration dependence of inhibition ([4]; 1 mM to 10 mM FeSO4, AVICEL (FIG. 19A)): increasingly inhibitory
- Ki ([4]; on AVICEL, 23 g AVICEL and 0.25 g enzyme per liter, read-out: Ki (x-intercept of Dixon plot)): ~1.3 mM
- Effect on enzyme [5]: significantly inhibited
- Effect on enzyme [6]: slightly inhibited
